{
  "source": "ChEMBL document CHEMBL3259558",
  "about": "“Identification of amides derived from 1H-pyrazolo[3,4-b]pyridine-5-carboxylic acid as potent inhibitors of human nicotinamide phosphoribosyltransferase (NAMPT)” (Bioorg Med Chem Lett, 2013)",
  "key": {"[1]": {"assay": "Antiproliferative activity against human Calu6 cells assessed as cell viability after 96 hrs by CyQuant staining-based assay", "type": "functional", "details": "Calu-6, 96 h"}, "[2]": {"assay": "Half life in NCR nude mouse at 100 mg/kg, po", "type": "ADME, organism-based", "set-up": "dose 100 mg/kg, route oral", "details": "in vivo"}, "[3]": {"assay": "Drug uptake in Sprague-Dawley rat retina at 30 mg/kg, po single dose measured 6.5 hrs after dose"}, "A2780 [4]": {"system": "A2780", "assay": "Antiproliferative activity against human A2780 cells assessed as cell viability after 72 hrs by SRB assay in presence of nitotinamide mononucleotide", "type": "functional, cell-based"}, "[5]": {"assay": "Cellular uptake in mouse KPP cells at 200 nM", "type": "ADME, cell-based", "details": "0.2 µM"}, "[6]": {"assay": "Octanol-PBS buffer distribution coefficient, log D of the compound at pH 7.4 by shake flask method", "type": "physicochemical"}, "[7]": {"assay": "Fraction unbound in mouse plasma at 5 uM by LC-MS/MS analysis", "type": "ADME, cell-free"}, "Mus musculus": {"system": "Mus musculus", "assay": "Toxicity in NCR nude mouse xenografted with human A2780 cells assessed as decrease in body weight at 100 mg/kg, po qd measured after 5 days", "type": "organism-based", "set-up": "dose 100 mg/kg, route oral", "details": "in vivo, 120 h"}, "[8]": {"assay": "Apparent permeability from apical to basolateral side in MDCK cells at 10 uM by LC-MS/MS analysis", "type": "ADME, cell-based, Canis lupus familiaris", "details": "dog"}, "HCT-116": {"system": "HCT-116", "assay": "Antiproliferative activity against human HCT116 cells assessed as cell viability after 96 hrs by CyQuant staining-based assay", "type": "functional", "details": "HCT-116, 96 h"}, "[9]": {"assay": "Inhibition of C-terminal His-6-tagged cynomolgus monkey NAMPT expressed in Escherichia coli (DE3)-RIL cells after 30 mins by mass spectrometry-based analysis", "set-up": "species or system Macaca fascicularis"}, "[10]": {"assay": "Antiproliferative activity against mouse KPP cells assessed as cell viability after 96 hrs by CyQuant staining-based assay", "type": "functional"}, "[11]": {"assay": "Cytotoxicity against rhesus monkey RF/6A cells assessed as cell viability after 96 hrs by CyQuant staining-based assay", "details": "Macaca mulatta"}, "Tumour": {"system": "Tumour", "assay": "Reduction of NAD level in tumor of NCR nude mouse xenografted with human A2780 cells at 100 mg/kg, po qd measured after day-5 dose for 1 to 24 hrs relative to vehicle-treated control", "type": "functional, organism-based", "set-up": "dose 100 mg/kg"}, "[12]": {"assay": "Volume of distribution at steady state in NCR nude mouse at 5 mg/kg, iv", "type": "ADME, organism-based", "set-up": "dose 5 mg/kg, route intravenous", "details": "in vivo, read-out: Vdss"}, "[13]": {"assay": "Antiproliferative activity against dog D17 cells assessed as cell viability after 96 hrs by CyQuant staining-based assay", "type": "functional", "details": "Canis lupus familiaris, D17, 96 h"}, "[14]": {"assay": "Clearance in NCR nude mouse at 5 mg/kg, iv", "type": "ADME, organism-based", "set-up": "dose 5 mg/kg, route intravenous", "details": "in vivo"}, "[15]": {"assay": "Antiproliferative activity against human HT1080 cells assessed as cell viability after 96 hrs by CyQuant staining-based assay", "type": "functional", "details": "HT-1080, 96 h"}, "[16]": {"assay": "Ratio of drug level in retina to plasma of Sprague-Dawley rat at 30 mg/kg, po qd for 2 days measured 6.5 hrs after last dose"}, "PC-3 [17]": {"system": "PC-3", "assay": "Cellular uptake in human PC3 cells at 1000 nM", "type": "ADME, cell-based", "details": "pc-3, 1 µM"}, "A2780 [18]": {"system": "A2780", "assay": "Antiproliferative activity against human A2780 cells assessed as cell viability after 72 hrs by SRB assay", "type": "functional, cell-based", "details": "A2780, 72 h"}, "[19]": {"assay": "Inhibition of C-terminal His-6-tagged dog NAMPT expressed in Escherichia coli (DE3)-RIL cells after 30 mins by mass spectrometry-based analysis", "set-up": "species or system Canis lupus familiaris"}, "[20]": {"assay": "Cmax in NCR nude mouse at 100 mg/kg, po", "type": "ADME, organism-based", "set-up": "dose 100 mg/kg, route oral", "details": "in vivo"}, "[21]": {"assay": "Antiproliferative activity against dog A72 cells assessed as cell viability after 96 hrs by CyQuant staining-based assay", "type": "functional", "details": "Canis lupus familiaris, A-72, 96 h"}, "[22]": {"biological_target": "T1, Nicotinamide phosphoribosyltransferase (Mus musculus, UniProt Q99KQ4)", "T1 sequence (Q99KQ4 whole entry)": "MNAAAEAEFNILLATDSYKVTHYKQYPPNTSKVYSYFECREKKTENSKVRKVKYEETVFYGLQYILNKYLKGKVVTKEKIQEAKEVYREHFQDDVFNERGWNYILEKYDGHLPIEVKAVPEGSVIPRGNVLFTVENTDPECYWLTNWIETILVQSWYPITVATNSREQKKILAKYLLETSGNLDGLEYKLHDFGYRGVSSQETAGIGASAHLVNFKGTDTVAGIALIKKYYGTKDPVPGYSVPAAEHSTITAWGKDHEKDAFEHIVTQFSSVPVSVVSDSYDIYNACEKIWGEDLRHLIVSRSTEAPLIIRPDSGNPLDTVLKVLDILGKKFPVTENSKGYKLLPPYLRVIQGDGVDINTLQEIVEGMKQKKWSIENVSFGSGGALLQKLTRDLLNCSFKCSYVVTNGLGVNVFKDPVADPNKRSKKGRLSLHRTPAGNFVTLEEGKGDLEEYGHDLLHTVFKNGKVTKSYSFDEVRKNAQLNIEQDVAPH", "assay": "Inhibition of mouse NAMPT after 30 mins by mass spectrometry-based analysis"}, "[23]": {"assay": "Cytotoxicity against African green monkey COS1 cells assessed as cell viability after 96 hrs by CyQuant staining-based assay", "details": "Chlorocebus aethiops, COS-1, 96 h"}, "[24]": {"assay": "Cytotoxicity against African green monkey COS7 cells assessed as cell viability after 96 hrs by CyQuant staining-based assay", "details": "Chlorocebus aethiops, COS-7, 96 h"}, "[25]": {"assay": "Antiproliferative activity against mouse B16F10 cells assessed as cell viability after 96 hrs by CyQuant staining-based assay", "type": "functional", "details": "B16-F10, 96 h"}, "[26]": {"assay": "Dissociation constant, pKa of the compound", "type": "physicochemical"}, "[27]": {"assay": "Antiproliferative activity against human MIAPaCa2 cells assessed as cell viability after 96 hrs by CyQuant staining-based assay", "type": "functional", "details": "MIA PaCa-2, 96 h"}, "[28]": {"assay": "Antiproliferative activity against mouse KPR cells assessed as cell viability after 96 hrs by CyQuant staining-based assay", "type": "functional"}, "[29]": {"assay": "Aqueous solubility of the compound in PBS at pH 7.2 by LC/CLND analysis", "type": "physicochemical"}, "[30]": {"assay": "Tmax in NCR nude mouse at 100 mg/kg, po", "type": "ADME, organism-based", "set-up": "dose 100 mg/kg, route oral", "details": "in vivo"}, "[31]": {"biological_target": "T1, Nicotinamide phosphoribosyltransferase", "assay": "Inhibition of NAMPT in mouse cells assessed as reduction in NAD level after 48 hrs by mass spectrometry", "type": "cell-based"}, "[32]": {"assay": "Half life in NCR nude mouse at 5 mg/kg, iv", "type": "ADME, organism-based", "set-up": "dose 5 mg/kg, route intravenous", "details": "in vivo"}, "[33]": {"assay": "Cellular uptake in mouse KPP cells at 1000 nM", "type": "ADME, cell-based", "details": "1 µM"}, "[34]": {"assay": "Antiproliferative activity against dog DH82 cells assessed as cell viability after 96 hrs by CyQuant staining-based assay", "type": "functional", "details": "Canis lupus familiaris, DH82, 96 h"}, "PC-3 [35]": {"system": "PC-3", "assay": "Antiproliferative activity against human PC3 cells assessed as cell viability after 96 hrs by CyQuant staining-based assay", "type": "functional", "details": "PC-3, 96 h"}, "[36]": {"assay": "Drug uptake in Sprague-Dawley rat retina at 30 mg/kg, po single dose measured 1 hr after dose"}, "[37]": {"biological_target": "Nicotinamide phosphoribosyltransferase (Rattus norvegicus, UniProt Q80Z29)", "sequence (Q80Z29 whole entry)": "as the sequence (Q99KQ4 whole entry) above, with T335S, N439T, I484M counted along it", "assay": "Inhibition of rat NAMPT after 30 mins by mass spectrometry-based analysis"}, "PC-3 [38]": {"system": "PC-3", "assay": "Cellular uptake in human PC3 cells at 200 nM", "type": "ADME, cell-based", "details": "pc-3, 0.2 µM"}, "[39]": {"assay": "Ratio of drug level in retina to plasma of Sprague-Dawley rat at 30 mg/kg, po qd for 2 days measured 1 hr after last dose"}, "A2780 [40]": {"system": "A2780", "assay": "Antitumor activity against human A2780 cells xenografted in NCR nude mouse assessed as tumor regression at 100 mg/kg, po qd measured for 5 to 15 days", "type": "functional, organism-based", "set-up": "dose 100 mg/kg"}},
  "note": "Active and inactive are the calls of the source. No cut-off for these calls is given here.",
  "data": [
    {"smiles": "O=C(NCc1ccc(S(=O)(=O)c2cccc(C(F)(F)F)c2)cc1)c1cnc2[nH]ncc2c1", "values": [
      {"measurement": "IC50", "setting": "[1]", "result": 21, "unit": "nM"},
      {"measurement": "half-life", "setting": "[2]", "result": 3.4, "unit": "h"},
      {"measurement": "concentration at 6.5 h", "setting": "[3]", "result": 680, "unit": "nM"},
      {"measurement": "inhibition", "setting": "A2780 [4]", "result": "inactive"},
      {"measurement": "Drug uptake", "setting": "[5]", "result": 12, "unit": "nM"},
      {"measurement": "logD", "setting": "[6]", "result": 3.4},
      {"measurement": "fraction unbound at 5 µM", "setting": "[7]", "result": 0.013},
      {"measurement": "Activity", "setting": "Mus musculus", "result": "Toxic"},
      {"measurement": "Papp A→B at 10 µM", "setting": "[8]", "result": 11, "unit": "×10⁻⁶ cm/s"},
      {"measurement": "IC50", "setting": "HCT-116", "result": 8, "unit": "nM"},
      {"measurement": "IC50", "setting": "[9]", "result": 73, "unit": "nM"},
      {"measurement": "IC50", "setting": "[10]", "result": 775, "unit": "nM"},
      {"measurement": "IC50", "setting": "[11]", "result": 386, "unit": "nM"},
      {"measurement": "Activity", "setting": "Tumour", "result": "Active"},
      {"measurement": "Vd", "setting": "[12]", "result": 0.45, "unit": "L/kg"},
      {"measurement": "IC50", "setting": "[13]", "result": 98, "unit": "nM"},
      {"measurement": "clearance", "setting": "[14]", "result": 3.3, "unit": "mL/min/kg"},
      {"measurement": "IC50", "setting": "[15]", "result": 9, "unit": "nM"},
      {"measurement": "Kp at 6.5 h", "setting": "[16]", "result": 0.093},
      {"measurement": "Drug uptake", "setting": "PC-3 [17]", "result": 54, "unit": "nM"},
      {"measurement": "IC50", "setting": "A2780 [18]", "result": 4.3, "unit": "nM"},
      {"measurement": "IC50", "setting": "[19]", "result": 22, "unit": "nM"},
      {"measurement": "Cmax", "setting": "[20]", "result": 53000, "unit": "nM"},
      {"measurement": "IC50", "setting": "[21]", "result": 23, "unit": "nM"},
      {"measurement": "IC50", "setting": "[22]", "result": 59, "unit": "nM"},
      {"measurement": "IC50", "setting": "[23]", "result": 501, "unit": "nM"},
      {"measurement": "IC50", "setting": "[24]", "result": 863, "unit": "nM"},
      {"measurement": "IC50", "setting": "[25]", "result": "> 1000", "unit": "nM"},
      {"measurement": "pKa", "setting": "[26]", "result": "< 2"},
      {"measurement": "IC50", "setting": "[27]", "result": 30, "unit": "nM"},
      {"measurement": "IC50", "setting": "[28]", "result": "> 1000", "unit": "nM"},
      {"measurement": "solubility", "setting": "[29]", "result": 1.4, "unit": "µM"},
      {"measurement": "Tmax", "setting": "[30]", "result": 0.25, "unit": "h"},
      {"measurement": "EC50", "setting": "[31]", "result": 70, "unit": "nM"},
      {"measurement": "half-life", "setting": "[32]", "result": 2.6, "unit": "h"},
      {"measurement": "Drug uptake", "setting": "[33]", "result": 74, "unit": "nM"},
      {"measurement": "IC50", "setting": "[34]", "result": 41, "unit": "nM"},
      {"measurement": "IC50", "setting": "PC-3 [35]", "result": 9, "unit": "nM"},
      {"measurement": "concentration at 1 h", "setting": "[36]", "result": 940, "unit": "nM"},
      {"measurement": "IC50", "setting": "[37]", "result": 35, "unit": "nM"},
      {"measurement": "Drug uptake", "setting": "PC-3 [38]", "result": 10, "unit": "nM"},
      {"measurement": "Kp at 1 h", "setting": "[39]", "result": 0.071},
      {"measurement": "Activity", "setting": "A2780 [40]", "result": "Active"}
    ]}
  ]
}
